From patent US20200237909A1, “METHODS OF TREATING OR PREVENTING BREAST CANCER METASTASES USING ANTIBODIES TO JAGGED1 AND CHEMOTHERAPEUTIC AGENTS” (The Trustees of Princeton University, priority 2017, published 2020)

Legend:
SUM1315-M1B1 cells = experiment: SUM1315-M1B1 bone metastasis model; assay type: in vivo, athymic nude mice; conditions: Week 4
Excerpt: FIG. 9. 15D11 synergizes with chemotherapy to inhibit bone metastasis in the SUM1315-M1B1 model. (A) Western blot analysis of Jagged1 protein expression level in SUM1315-M1B1, SPC2, SCP28-Vector, and SCP28-Jagged1 cells. β-actin was used as loading control. (B) Schematic representation of the experimental procedure. In brief, SUM1315-M1B1 cells were IC injected into 4-6 weeks female athymic nude mice to generate bone metastases. One week later, mice were randomized into four groups and treated with respective therapeutic agents. Bone metastasis progression was monitored by weekly BLI imaging until the experimental endpoint (4 weeks after injection). (C) Representative BLI and X-ray images of mice in Week 4 right before euthanizing the mice. (D) Quantification of bone metastasis burden each week based on BLI imaging from the experiment. […] (E) Representative H&E staining and TRAP staining images of hind limb bones from experiment in A were shown. Scale bar: 100 μm. […] AU: arbitrary unit. n=10, **p<0.01 by Student's t-test. (G) Quantification of the number of TRAP-positive osteoclasts per field. n=5, **p<0.01 by Student's t-test.
To validate whether the observed synergy of combined treatment can also be observed in other models of bone metastasis beyond the MDA-MB-231 series, the bone metastatic SUM1315-M1B1 cell line was used. […]

[1] = test system: Notch downstream genes (human HES2, HEY1, HEY2); experiment: Notch downstream gene expression in tumor cells co-cultured with MSC after chemotherapy; assay type: cell-based; conditions: co-culture tumor cells after chemotherapy
MSCs = experiment: Stress inducers/inhibitors: Jagged1 expression and ROS production in MSCs; assay type: cell-based, mouse
Excerpt: Next, which signaling pathway is responsible for Jagged1 induction after chemotherapy in osteoblast lineage cells was investigated. Chemotherapy generates many stress responses in cells, including endoplasmic reticulum stress (ER stress), and oxidative stress. Some of the stress conditions have been associated with the regulation of Jagged1 expression (Paul et al., 2014). Several treatments were used to mimic or inhibit these stress responses and then Jagged1 mRNA and protein levels were analyzed within the cells.
293T, H29-Clone #7, MC3T3-E1 Clone #4(denoted as MC3T3 for abbreviation thereafter), MCF7TR, mouse mesenchymal stromal cell (MSC, isolated from BALB/c), 4T1.2, SCP28, SCP28-Vector and -Jagged1 cells, SCP28, RAW264.7, and SUM1315-M1B1 cells were cultured according to American Type Culture Collection instructions and the inventors' previous studies (Ell et al., 2013; Ren et al., 2008; Sethi et al., 2011; Zheng et al., 2014). MSC cells were derived previously and were cultured in DMEM supplemented with 10% FBS, 30 ng/ml bFGF, 100 U/ml penicillin, and 100 μg/ml streptomycin (Ren et al., 2008). All plasmids were transfected into different cell lines using Lipofectamine 2000 following the manufacturer's manual (Life Technologies, CA, USA). To generate stable cell lines, a pLEX-MCS based lentivirus vector or a pMSCV-hygro based retrovirus vector was used in our study. Lentiviruses were packaged in HEK293T cells while retroviruses were packaged by using H29 cell line. Conditional media from these packaging cells containing viruses were collected 2 days and 3 days after transfection. Recipient cell lines were exposed to conditional media containing viruses supplemented with 2 μg/mL Polybrene for 48 h. Infected cells were selected with puromycin or hygromycin to generate stable expressing cell lines. 293T and H29clone #7 are cell lines from female humans. All other cancer cell lines are breast cancer cell lines from either female human or mouse.

CC(=O)O[C@H]1C(=O)[C@@]2(C)[C@H]([C@H](OC(=O)c3ccccc3)[C@]3(O)C[C@H](OC(=O)[C@H](O)[C@@H](NC(=O)c4ccccc4)c4ccccc4)C(C)=C1C3(C)C)[C@]1(OC(C)=O)CO[C@@H]1C[C@@H]2O [paclitaxel]
bone metastasis burden (BLI signal) (SUM1315-M1B1 cells): minor reduction of BLI signal

N.N.[Cl][Pt][Cl] [cisplatin]
Notch downstream genes HES2, HEY1, HEY2 [1]: significantly upregulated | ROS production in MSCs (MSCs): induced ROS production
